Reference: patent publication US7727988B2, “Azabicyclo[3.1.0]hex-3-yl}alkyl)pyrimidinedione” (Glaxo Group Limited, priority 2006, dated 2010)
Where a name gives a salt, the structure may show the parent alone.

Experiments:
dopamine D3 receptor = molecular target: T1, dopamine D3 receptor (Homo sapiens, UniProt P35462); assay: GTPS scintillation proximity assay (GTPS-SPA), CHO_D3 membranes, antagonist format; type: biochemical
T1 construct: host or cells: Chinese Hamster Ovary (CHO) cells, membranes
Method: (§1) Functional potency of compounds of this invention can be measured by the following GTPS scintillation proximity assay (GTPS-SPA). Cells used in the study are Chinese Hamster Ovary (CHO) Cells. • Cell Line • CHO_D2 • CHO_D3 • Dopamine CHO D3 (Biocat no 1060) transduced with bacmam G0 G-protein (Biocat no 97886)
(§2) All steps are performed at 4° C. Cell membranes are prepared as follows. Cell pellets are resuspended in 10 volumes of 50 mM HEPES, 1 mM EDTA pH 7.4, using KOH. Cells are homogenised within a glass waring blender for 2 bursts of 15 secs in 200 mls of buffer (50 mM HEPES, 1 mM leupeptin, 25 μg/ml bacitracin, 1 mM EDTA, 1 mM PMSF, 2 μM Pepstatin A). (the latter 2 reagents added as fresh ×100 and ×500 stocks respectively in ethanol). The blender is plunged into ice for 5 mins after the first burst and 10-40 mins after the final burst to allow foam to dissipate. The material is then spun at 500 g for 20 mins and the supernatant spun for 36 mins at 48.000 g. The pellet is resuspended in the same buffer as above but without PMSF and Pepstatin A. The material is then forced through a 0.6 mm needle, made up to the required volume, (usually ×4 the volume of the original cell pellet), aliquoted and stored frozen at −80° C.
(§3) The final top concentration of test drug is 3 μM in the assay and 11 points serial dilution curves 1:4 in 100% DMSO are carried out using a Biomek FX. The test drug at 1% (0.5 ul) total assay volume (TAV) is added to a solid, white Greiner polypropylene 384-well assay plate. 50% TAV (25 μl) of precoupled (for 60 mins at RT) membranes, 5 μg/well, and Wheatgerm Agglutinin Polystyrene Scintillation Proximity Assay beads (RPNQ0260, Amersham), 0.25 mg/well, in 20 mM HEPES (pH 7.4, 100 mM NaCl, 10 mM MgCl2), 60 μg/mL saponin and 30 uM GDP is added. The third addition is a 20% TAV (10 ul) addition of either buffer, (agonist format) or EC80 final assay concentration of agonist, Quinelorane, prepared in assay buffer (antagonist format). The assay is started by the addition of 29% TAV (15 ul) of GTP[35S] 0.38 nM final (37 MBq/mL, 1160 Ci/mmol, Amersham). After all additions assay plates are spun down for 1 min at 1,000 rpm. The final assay cocktail ([…]) is incubated at room temperature to equilibrate for 3-6 hours before reading on a ViewLux™ (613/55 filter) luminescence imager 5 min/plate.
(§4) The effect of the test drug over the basal generates fpKi values of test drug are calculated from the IC50 generated by “antagonist format” experiment, using Cheng & Prusoff equation: fKi=IC50/1+([A]/EC50) where: [A] is the concentration of the agonist Quinelorane in the assay and EC50 is the Quinelorane EC50 value obtained in the same experiment. fpKi is defined as −logfKi. • pKi results are only estimated to be accurate to about 0.3-0.5.

dopamine D2 receptor = molecular target: T2, dopamine D2 receptor (Homo sapiens, UniProt P14416); assay: GTPS scintillation proximity assay (GTPS-SPA), CHO_D2 membranes; type: biochemical; conditions: up to the highest concentration tested in the assay (3 μM)
T2 construct: expressed in transfected cells; host or cells: Chinese Hamster Ovary (CHO) cells, membranes
Method: as §1, §2, §3, §4

T1 sequence (P35462 whole entry, species assumed): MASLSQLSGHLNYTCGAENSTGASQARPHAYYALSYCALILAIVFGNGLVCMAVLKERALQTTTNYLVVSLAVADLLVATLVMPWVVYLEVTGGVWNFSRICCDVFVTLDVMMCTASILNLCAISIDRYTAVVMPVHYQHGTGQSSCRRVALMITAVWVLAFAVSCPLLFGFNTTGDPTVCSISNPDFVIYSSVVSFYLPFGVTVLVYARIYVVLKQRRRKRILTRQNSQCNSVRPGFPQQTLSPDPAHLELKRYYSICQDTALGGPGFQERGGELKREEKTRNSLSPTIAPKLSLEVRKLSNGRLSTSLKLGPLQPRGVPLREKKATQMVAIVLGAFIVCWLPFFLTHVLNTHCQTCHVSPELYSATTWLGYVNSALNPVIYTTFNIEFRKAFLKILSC
T2 sequence (P14416 whole entry): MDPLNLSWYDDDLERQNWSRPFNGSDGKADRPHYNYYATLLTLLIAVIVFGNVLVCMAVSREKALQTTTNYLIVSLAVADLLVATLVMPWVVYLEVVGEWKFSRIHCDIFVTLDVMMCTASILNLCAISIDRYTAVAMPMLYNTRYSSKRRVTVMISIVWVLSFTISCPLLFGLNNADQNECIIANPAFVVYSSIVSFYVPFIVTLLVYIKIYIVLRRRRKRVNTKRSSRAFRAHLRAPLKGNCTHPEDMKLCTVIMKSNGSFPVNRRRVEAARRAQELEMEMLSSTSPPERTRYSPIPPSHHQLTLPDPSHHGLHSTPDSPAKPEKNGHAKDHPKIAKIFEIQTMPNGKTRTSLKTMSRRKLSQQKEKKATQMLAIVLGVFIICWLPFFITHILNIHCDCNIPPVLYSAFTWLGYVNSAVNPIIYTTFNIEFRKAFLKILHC

For Cl.O=c1[nH]c(=O)n(CCCN2C[C@@H]3C[C@]3(c3ccc(C(F)(F)F)cc3)C2)cc1-c1cccs1 [Example E8, 5-(2-thienyl)-1-(3-{(1S,5R)-1-[4-(trifluoromethyl)phenyl]-3-azabicyclo[3.1.0]hex-3-yl}propyl)-2,4(1H,3H)-pyrimidinedione hydrochloride], the “Selectivity for D3 over D2 receptors” value (dopamine D3 receptor) was 100 fold.

For Cl.O=c1[nH]c(=O)n(CCCN2C[C@@H]3C[C@]3(c3ccc(C(F)(F)F)cc3)C2)cc1-c1ccccc1 [Example E9, 5-phenyl-1-(3-{(1S,5R)-1-[4-(trifluoromethyl)phenyl]-3-azabicyclo-[3.1.0]hex-3-yl}propyl)-2,4(1H,3H)-pyrimidinedione hydrochloride], the “Selectivity for D3 over D2 receptors” value (dopamine D3 receptor) was 199 fold.

With Cc1ccsc1-c1cn(CCCCN2C[C@@H]3C[C@]3(c3ccc(C(F)(F)F)cc3)C2)c(=O)[nH]c1=O.Cl [Example E16, 5-(3-methyl-2-thienyl)-1-(4-{(1S,5R)-1-[4-(trifluoromethyl)phenyl]-3-azabicyclo[3.1.0]hex-3-yl}butyl)-2,4(1H,3H)-pyrimidinedione hydrochloride] the “Selectivity for D3 over D2 receptors” value (dopamine D3 receptor) was 100 fold.

With Cl.Cl.O=c1[nH]c(=O)n(CCCN2C[C@@H]3C[C@]3(c3ccc(C(F)(F)F)cc3)C2)cc1-c1cccnc1 [Example E27, 5-(3-pyridinyl)-1-(3-{(1S,5R)-1-[4-(trifluoromethyl)phenyl]-3-azabicyclo[3.1.0]hex-3-yl}propyl)-2,4(1H,3H)-pyrimidinedione dihydrochloride] the “Selectivity for D3 over D2 receptors” value (dopamine D3 receptor) was 251 fold.

Cc1cc(-c2cn(CCCCN3C[C@@H]4C[C@]4(c4ccc(C(F)(F)F)cc4)C3)c(=O)[nH]c2=O)ccn1.Cl.Cl [Example E28, 5-(2-methyl-4-pyridinyl)-1-(4-{(1S,5R)-1-[4-(trifluoromethyl)phenyl]-3-azabicyclo[3.1.0]hex-3-yl}butyl)-2,4(1H,3H)-pyrimidinedione dihydrochloride] was tested, and the “Selectivity for D3 over D2 receptors” value (dopamine D3 receptor) was 316 fold.

In the case of Cc1cccc(-c2cn(CCCN3C[C@@H]4C[C@]4(c4ccc(C(F)(F)F)cc4)C3)c(=O)[nH]c2=O)n1.Cl.Cl [Example E30, 5-(6-methyl-2-pyridinyl)-1-(3-{(1S,5R)-1-[4-(trifluoromethyl)phenyl]-3-azabicyclo[3.1.0]hex-3-yl}propyl)-2,4(1H,3H)-pyrimidinedione dihydrochloride], the “Selectivity for D3 over D2 receptors” value (dopamine D3 receptor) is reported as 199 fold.

For Cc1nc(C)c(-c2cn(CCCN3C[C@@H]4C[C@]4(c4ccc(C(F)(F)F)cc4)C3)c(=O)[nH]c2=O)o1.Cl [Example E41, 5-(2,4-dimethyl-1,3-oxazol-5-yl)-1-(3-{(1S,5R)-1-[4-(trifluoromethyl)phenyl]-3-azabicyclo[3.1.0]hex-3-yl}propyl)-2,4(1H,3H)-pyrimidinedione hydrochloride], the “activity in the D2 GTPS-SPA assay” value (dopamine D2 receptor) was “no activity”.

For Cc1nc(C)c(-c2cn(CCCCN3C[C@@H]4C[C@]4(c4ccc(C(F)(F)F)cc4)C3)c(=O)[nH]c2=O)o1.Cl [Example E42, 5-(2,4-dimethyl-1,3-oxazol-5-yl)-1-(4-{(1S,5R)-1-[4-(trifluoromethyl)phenyl]-3-azabicyclo[3.1.0]hex-3-yl}butyl)-2,4(1H,3H)-pyrimidinedione hydrochloride], the “activity in the D2 GTPS-SPA assay” value (dopamine D2 receptor) was “no activity”.

With Cl.Cl.O=c1[nH]c(=O)n(CCCN2C[C@@H]3C[C@]3(c3ccc(C(F)(F)F)cc3)C2)cc1-c1ccncc1F [Example E44, 5-(3-fluoro-4-pyridinyl)-1-(3-{(1S,5R)-1-[4-(trifluoromethyl)phenyl]-3-azabicyclo[3.1.0]hex-3-yl}propyl)-2,4(1H,3H)-pyrimidinedione dihydrochloride] the “activity in the D2 GTPS-SPA assay” value (dopamine D2 receptor) was “no activity”.

In the case of Cl.Cl.O=c1[nH]c(=O)n(CCCN2C[C@@H]3C[C@]3(c3ccc(C(F)(F)F)cc3)C2)cc1-c1cc(F)cnc1Cl [Example E45, 5-(2-chloro-5-fluoro-3-pyridinyl)-1-(3-{(1S,5R)-1-[4-(trifluoromethyl)phenyl]-3-azabicyclo[3.1.0]hex-3-yl}propyl)-2,4(1H,3H)-pyrimidinedione dihydrochloride], the “activity in the D2 GTPS-SPA assay” value (dopamine D2 receptor) is reported as “no activity”.

In the case of Cl.Cl.N#Cc1cccc(-c2cn(CCCN3C[C@@H]4C[C@]4(c4ccc(C(F)(F)F)cc4)C3)c(=O)[nH]c2=O)n1 [Example E47, 6-[2,4-dioxo-1-(3-{(1S,5R)-1-[4-(trifluoromethyl)phenyl]-3-azabicyclo[3.1.0]hex-3-yl}propyl)-1,2,3,4-tetrahydro-5-pyrimidinyl]-2-pyridinecarbonitrile dihydrochloride], the “activity in the D2 GTPS-SPA assay” value (dopamine D2 receptor) is reported as “no activity”.

Cl.Cl.O=c1[nH]c(=O)n(CCCN2C[C@@H]3C[C@]3(c3ccc(C(F)(F)F)cc3F)C2)cc1-c1cccnc1F [Example E48, 5-(2-fluoro-3-pyridinyl)-1-(3-{(1S,5R)-1-[2-fluoro-4-(trifluoromethyl)phenyl]-3-azabicyclo[3.1.0]hex-3-yl}propyl)-2,4(1H,3H)-pyrimidinedione dihydrochloride] was tested, and the “activity in the D2 GTPS-SPA assay” value (dopamine D2 receptor) was “no activity”.

O=c1[nH]c(=O)n(CCCN2CC3CC3(c3ccc(Cl)cc3)C2)cc1-c1cccnc1F [Example E50, 1-{3-[(1S,5R/1R,5S)-1-(4-chlorophenyl)-3-azabicyclo[3.1.0]hex-3-yl]propyl}-5-(2-fluoro-3-pyridinyl)-2,4(1H,3H)-pyrimidinedione] was tested, and the “activity in the D2 GTPS-SPA assay” value (dopamine D2 receptor) was “no activity”.

In the case of Cc1cc(F)ccc1-c1cn(CCCN2C[C@@H]3C[C@]3(c3ccc(C(F)(F)F)cc3)C2)c(=O)[nH]c1=O [Example E51, 5-(4-fluoro-2-methylphenyl)-1-(3-{(1S,5R)-1-[4-(trifluoromethyl)phenyl]-3-azabicyclo[3.1.0]hex-3-yl}propyl)-2,4(1H,3H)-pyrimidinedione], the “activity in the D2 GTPS-SPA assay” value (dopamine D2 receptor) is reported as “no activity”.

With Cc1cc(Cl)ccc1-c1cn(CCCN2C[C@@H]3C[C@]3(c3ccc(C(F)(F)F)cc3)C2)c(=O)[nH]c1=O [Example E53, 5-(4-chloro-2-methylphenyl)-1-(3-{(1S,5R)-1-[4-(trifluoromethyl)phenyl]-3-azabicyclo[3.1.0]hex-3-yl}propyl)-2,4(1H,3H)-pyrimidinedione] the “activity in the D2 GTPS-SPA assay” value (dopamine D2 receptor) was “no activity”.

In the case of O=c1[nH]c(=O)n(CCCN2C[C@@H]3C[C@]3(c3ccc(C(F)(F)F)cc3)C2)cc1-c1ccc(Cl)nc1 [Example E59, 5-(6-chloro-3-pyridinyl)-1-(3-{(1S,5R)-1-[4-(trifluoromethyl)phenyl]-3-azabicyclo[3.1.0]hex-3-yl}propyl)-2,4(1H,3H)-pyrimidinedione dihydrochloride], the “activity in the D2 GTPS-SPA assay” value (dopamine D2 receptor) is reported as “no activity”.

In the case of Cc1cnc(F)c(-c2cn(CCCN3C[C@@H]4C[C@]4(c4ccc(C(F)(F)F)cc4)C3)c(=O)[nH]c2=O)c1.Cl.Cl [Example E61, 5-(2-fluoro-5-methyl-3-pyridinyl)-1-(3-{(1S,5R)-1-[4-(trifluoromethyl)phenyl]-3-azabicyclo[3.1.0]hex-3-yl}propyl)-2,4(1H,3H)-pyrimidinedione dihydrochloride], the “activity in the D2 GTPS-SPA assay” value (dopamine D2 receptor) is reported as “no activity”.

Cc1ccc(-c2cn(CCCN3C[C@@H]4C[C@]4(c4ccc(C(F)(F)F)cc4)C3)c(=O)[nH]c2=O)c(Cl)n1.Cl.Cl [Example E63, 5-(2-chloro-6-methyl-3-pyridinyl)-1-(3-{(1S,5R)-1-[4-(trifluoromethyl)phenyl]-3-azabicyclo[3.1.0]hex-3-yl}propyl)-2,4(1H,3H)-pyrimidinedione dihydrochloride] was tested, and the “activity in the D2 GTPS-SPA assay” value (dopamine D2 receptor) was “no activity”.

Cc1ccncc1-c1cn(CCCN2C[C@@H]3C[C@]3(c3ccc(C(F)(F)F)cc3)C2)c(=O)[nH]c1=O.Cl.Cl [Example E64, 5-(4-methyl-3-pyridinyl)-1-(3-{(1S,5R)-1-[4-(trifluoromethyl)phenyl]-3-azabicyclo[3.1.0]hex-3-yl}propyl)-2,4(1H,3H)-pyrimidinedione dihydrochloride] was tested, and the “activity in the D2 GTPS-SPA assay” value (dopamine D2 receptor) was “no activity”.
